What was measured:
Pep4, Pep7, Pep8, Pep10 = assay: Cross-reactivity between peptides in ELISA; format: binding; settings: sera of mice immunized with a single peptide
Procedure: (§1) Blood was collected prior to immunizations and prior to the two boosts. Sera were tested in ELISA. The ELISA method used in the present examples, in which many if not all the parameters and conditions may be varied or modified in ways that are completely conventional in the art, is described below. • 1. 96 well plates (Immulon HBX4) were coated with 50 μl of diluted antigen (peptides at 1 μg/well made in carbonate buffer) and incubated overnight at 4° C. • 2. Unbound antigen was removed by flicking the contents of the plate into a sink without further washing. • 3. Non-specific binding was blocked or prevented by adding 300 μL/well of 4% BSA/PBS-Tween 20 (0.05%). This was allowed to incubate for 2 hour at room temperature. • 4. The plates were washed once with PBS-Tween 20 (0.05%) and 50 μl of primary antibody was added per well at appropriate dilutions. When using serum, the starting dilution was 1:40 and was further diluted by doublings to 1:80, 1:160, and 1:320 (or higher as desired). Plates were incubated for 1 hour at 37° C. • 5. Plates were washed three times with PBS-Tween (0.05%) as above and 100 μl of secondary antibody was added per well at appropriate dilutions. For alkaline phosphatase-conjugated goat anti-mouse IgG-AP, a dilution of 1:500 was used here. Plates were incubated for 1 hour at 37° C. • 6. Plates were again washed three times as above and 200 μl of substrate solution for Alkaline phosphatase (p-nitro phenyl phosphate or pNPP) was added at a concentration of 5 mg/ml. The color reaction was read in an automated microplate reader at a frequency of […] and the absorbance (or optical density) was registered (referred to as A405 or OD405) Several important observations were made in these tests against the 4 peptides: (a) all 4 peptides were immunogenic and induced increasing anti-peptide responses with subsequent boosts in all mice (except in one non-responder) (FIG. 3). […] See also FIG. 16A-16B
Both of these are category #1 peptides. […] That supports the notion that CDR1 and CDR3 of mAb2 are antigenically distinct.

[1] = test system: C. trachomatis-infected HEp2 cells; assay: Indirect immunofluorescence of immune sera on infected HEp2 cells; format: cell-based, human; settings: sera 1:40 dilution, FITC anti-mouse IgG
Excerpt: Micrographs of HEp2 cells infected with C. trachomatis are immunostained (by indirect immunofluorescence) with sera (1:40 dilution) from mice immunized with the designated peptides (A-E) or soluble. mAb2 (F). FITC anti-mouse IgG was the detecting antibody. Arrows point to distinct differences in targets of the immune sera. Antibodies in panels A-C recognized EB and RB and possibly some matrix material in the inclusion. Antibodies in D-E also recognized targets in the inclusion matrix and inclusion membrane, similar to immune sera raised against the older vaccine candidate, the entire mAb2 (F). 40× original magnification. Samples are counterstained with Evans blue.
HEp2 cells were infected with C. trachomatis were subjected to cytocentrifugation to deposit them onto microscope slides. After fixation (MeOH) they were stained with sera (1:40 dilution) from mice immunized with the indicated peptides or with soluble mAb2. The binding of the antibodies to the cells was detected using a fluorescent (FITC-labeled) secondary Ab, an anti-mouse IgG. Results appear in FIGS. 9A-F.

C trachomatis = assay: DFA staining of vaginal smears after challenge of peptide-immunized mice; format: in vivo, mouse; settings: mice immunized three times at 100 μg doses; days 7 and 14 post-challenge
Excerpt: Mice are challenged with a human biovar of C trachomatis (K or E serovars for urogenital infections; C or B serovars for ocular infection).
Groups of 4-8 mice are “masked” as to pretreatment before challenge with live elementary bodies (EB). At weekly intervals through at least 4 wks, vaginal (or conjunctival) swabs are collected for isolation culture and direct fluorescence antibody staining for EB.
Using the murine models described above, the present inventors immunized mice with one of the four peptides (Pep4, 7, 8 or 10) administered three times at 100 μg doses. Results of direct fluorescent antibody (DFA) staining are summarized for days 7 and 14 post-challenge in FIGS. 10-11.

human sera = assay: ELISA of human serum samples on 4 peptides (Example XI); format: binding
Procedure: as §1
Human sera were tested by PCR for expression of several chlamydial genes, by IHC against C. trachomatis-infected cells and by ELISA against several of the peptides of the present invention. Results are shown in Table 7 (below) which include results from PCR-studies for presence of DNA encoding the chlamydial Major Outer Membrane Protein (MOMP) in human peripheral blood mononuclear cells (PBMC) (which are primarily lymphocytes and monocytes) and cervical swabs
Also shown is IHC staining of C. trachomatis-infected human HEp2 cells and binding of antibodies in the patient samples to four peptides of the present invention (Pep4, 7, 8, and 10) in ELISA.

chlamydia = assay: Gross anatomical observation of genital tract inflammation after challenge; format: in vivo, mouse; settings: female mice primed and boosted twice SC, necropsy ~28 days post-challenge, vs adjuvant-only control
Excerpt: FIG. 15A-15C is a set of three photographs showing the gross morphology of tissues of the female reproductive tract of mice immunized and then challenged 28 days earlier with Pep4 or Pep7. Mice had been primed and boosted twice SC, as above, and were challenged with chlamydia 2 weeks later, rechallenged and sacrificed 4 weeks after re-challenge. Inflamed genital tracts outlined in dashed lines.
Genital tracts were exposed at necropsy ˜28 days post-challenge to score inflammatory changes (and then removed for histological analysis). […] Representative examples for recipients of Peptides 4 and 7 are shown in the center and right panels, respectively. Yellow arrows point to uterine horns (which are further demarcated with dashed lines). It is evident that the peptide immunogens reduced the gross pathology of the genital tract even weeks after challenge. This has been reproduced in a second experiment in which control mice received an irrelevant peptide instead of Peptides 4 or 7. Based on what is known in the art from other contexts, the histopathological results are expected to be consistent with these gross anatomical observations.

Row | Sequence | structures recognized by immune sera in infected cells [1] | ELISA 1:40 on 4 peptides Scale: 1+-3+ (human sera; human serum sample # 1) | ELISA 1:40 on 4 peptides Scale: 1+-3+ (human sera; human serum sample # 2) | ELISA 1:40 on 4 peptides Scale: 1+-3+ (human sera; human serum sample # 3) | ELISA 1:40 on 4 peptides Scale: 1+-3+ (human sera; human serum sample # 5) | ELISA 1:40 on 4 peptides Scale: 1+-3+ (human sera; human serum sample # 7) | ELISA 1:40 on 4 peptides Scale: 1+-3+ (human sera; human serum sample # 8) | ELISA 1:40 on 4 peptides Scale: 1+-3+ (human sera; human serum sample # 9) | ELISA 1:40 on 4 peptides Scale: 1+-3+ (human sera; human serum sample # 10) | ELISA 1:40 on 4 peptides Scale: 1+-3+ (human sera; human serum sample # 12) | ELISA 1:40 on 4 peptides Scale: 1+-3+ (human sera; human serum sample # 13) | ELISA 1:40 on 4 peptides Scale: 1+-3+ (human sera; human serum sample # 16) | ELISA 1:40 on 4 peptides Scale: 1+-3+ (human sera; human serum sample # 18) | ELISA 1:40 on 4 peptides Scale: 1+-3+ (human sera; human serum sample # 21) | ELISA 1:40 on 4 peptides Scale: 1+-3+ (human sera; human serum sample # 22) | ELISA 1:40 on 4 peptides Scale: 1+-3+ (human sera; human serum sample # 23) | ELISA 1:40 on 4 peptides Scale: 1+-3+ (human sera; human serum sample # 24) | ELISA 1:40 on 4 peptides Scale: 1+-3+ (human sera; human serum sample # 26) | further results
1 | GYTFTDYSMH [Pep8] | recognized targets in the inclusion matrix and membrane | 2 | 1 | 2.5 | 2 | 1 | 3 | 3 | 2 | 2 | 2 | 1.5 | 3 | 3 | 1.5 | 1.5 | 2 | 2 | cross-reactivity of raised Abs with Peps 4, 7 or 10 (ELISA) (Pep4, Pep7, Pep8, Pep10): did not cross-react; bacterial shedding measured by DFA staining (C trachomatis): reduced bacterial shedding
2 | HALMPATAVASL [Pep7] | recognized EB and metabolically active, non-infectious reticulate bodies (RB) | 1.5 | 1 | 2.5 | 2 | 0.75 | 3 | 3 | 2 | 1.5 | 2 | 1.5 | 3 | 2 | 1.5 | 1.5 | 1.5 | 2 | cross-reactivity of raised Abs with Pep4 (ELISA) (Pep4, Pep7, Pep8, Pep10): cross reacted; gross inflammation / pathology of the genital tract (chlamydia): not nearly as inflamed
3 | RYDVGGDHYYFTMD [Pep10] | recognized targets in the inclusion matrix and membrane | 2 | 1 | 2.5 | 1.5 | 1 | 3 | 3 | 2 | 2 | 2 | 1 | 2 | 3 | 2 | 1 | 2 | 1.5 | 

Reference: patent publication US8637040B2, “Genus-wide chlamydial peptide vaccine antigens” (priority 2008, dated 2014)
